The results in this text go back to patent US7541367B2, “3-benzoimidazolyl-pyrazolopyridines useful in treating kinase disorders” (Janssen Pharmaceutica, N.V., priority 2005, dated 2009).

Some results are limits rather than exact numbers.

One may read the IC50 as the point on the concentration scale where inhibition reaches its midpoint. A low value points to inhibition by little substance.

Experiment [1] concerns HeLa cervical adenocarcinoma. As to the kind of experiment: Cell Proliferation Inhibition Assay (14C-thymidine incorporation), HeLa.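 Note: test compound in DMSO added to cells seeded in scintillating 96-well plates, DMSO-only wells as control, uptake of methyl 14C-thymidine into new DNA counted.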 In kind it is cell-based. The settings on record: Homo sapiens, HeLa cells.
The next experiment addresses T1, HER2 (Homo sapiens, UniProt P04626).
T1 construct: GST (Glutathione-S-Transferase) (N); HIS6 (N); thrombin cleavage site (N); purchased Proqinase, Freiburg, Germany
As to the kind of experiment: HER2 kinase screening assay (33P-ATP FlashPlate).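 Note: Biotin-poly(GT) 4:1 peptide captured on streptavidin FlashPlate, 33P transfer from γ-ATP read by scintillation counting, lower incorporation means inhibition, 1% DMSO final, 100 µL reaction.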 In kind it is biochemical. The following applies: GST-HIS6 HER-2 aa 679 to 1255; 10 μM ATP; 1 hr at 30° C.

In a further experiment the target is T2, RET (Homo sapiens, UniProt P07949).
T2 construct: polyhistidine (N)
T2 sequence (P07949 658-1114 limits assumed): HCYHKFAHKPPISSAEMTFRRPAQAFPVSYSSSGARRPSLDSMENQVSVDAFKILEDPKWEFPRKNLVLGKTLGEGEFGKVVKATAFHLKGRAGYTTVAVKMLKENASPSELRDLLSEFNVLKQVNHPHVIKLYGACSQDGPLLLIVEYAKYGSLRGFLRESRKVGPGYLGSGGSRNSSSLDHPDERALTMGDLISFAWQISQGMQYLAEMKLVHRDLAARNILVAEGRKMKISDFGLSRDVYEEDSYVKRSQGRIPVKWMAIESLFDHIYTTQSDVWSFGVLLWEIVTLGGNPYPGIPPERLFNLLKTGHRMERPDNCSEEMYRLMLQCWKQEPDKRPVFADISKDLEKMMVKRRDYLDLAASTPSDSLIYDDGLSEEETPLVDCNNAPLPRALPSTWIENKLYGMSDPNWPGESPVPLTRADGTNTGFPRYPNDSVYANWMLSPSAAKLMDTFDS
Description: RET kinase screening assay (33P-ATP FlashPlate).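 Note: biotinylated peptide substrate captured on streptavidin FlashPlate, 33P phosphate transfer read by scintillation counting, 1% DMSO, lower incorporation means inhibition, percent relative to per-plate maximum and minimum signals.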 The following applies: human RET kinase domain; 10 μM ATP; 1 hr at 30° C. The class given is biochemical.

Another experiment has as its target T3, VEGF-R2 (Rattus norvegicus, UniProt O08775).
T3 construct: polyhistidine (N)
Description: VEGF-R2 kinase screening assay (33P-ATP FlashPlate).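 Note: Read-out is ³³P incorporation from ³³P-γ-ATP into biotinylated peptide substrate captured on streptavidin FlashPlate, counted by scintillation, 1% DMSO final, inhibition scaled between per-plate maximum and minimum signals.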 The following applies: rat VEGF-R2 kinase domain; 10 μM ATP; 1 hr at 30° C. The class given is biochemical.

Another experiment addresses T4, CDK1 (Homo sapiens, UniProt P06493).
T4 construct: purchased New England Biolabs, Beverly, Mass; 6020; host or cells: insect cells
As to the kind of experiment: CDK-1 kinase screening assay (33P-ATP FlashPlate). The class given is biochemical. The settings on record: human CDK1 with cyclin B; 10 μM ATP; 1 hr at 30° C. The method, then: A kinase reaction mixture was prepared containing 50 mM Tris-HCl pH=8, 10 mM MgCl2, 0.1 mM […], 1 mM DTT, 10 μM ATP, 0.025 μM biotinylated histone-H1 peptide substrate and 0.2 μCuries per well ^33P-γ-ATP (2000-3000 Ci/mmol). 70 μL of the kinase reaction mixture was dispensed into the well of a streptavidin coated FlashPlate™ (Cat. # SMP103, NEN, Boston, Mass.).
Test compound stock in 100% DMSO (1 μL) was added to the wells resulting in a final concentration of 1% DMSO in the reaction with a 100 μL final reaction volume. Each enzyme was diluted in 50 mM Tris-HCl pH=8.0, 0.11% BSA and 30 μL was added to each well to initiate the reaction. The reaction was incubated for one hour at 30° C. At the end of the 1 hr incubation, the reaction was terminated by aspirating the mixture from the plate and washing the wells twice with PBS containing 100 mM EDTA. The biotinylated peptide substrate became immobilized on the Flashplate™ and the incorporation of ^33P-γ-ATP was measured by reading the plate on a scintillation counter. Inhibition of the enzymatic activity was measured by observing a reduced amount of ^33P-γ-ATP incorporated into the immobilized peptide.
The CDK1 enzyme was isolated from insect cells expressing both the human CDK1 catalytic subunit (Accession number NM_001786) and its positive regulatory subunit cyclin B (New England Biolabs, Beverly, Mass.; Cat. # 6020). The assay used 30 ng of the N-terminal biotinylated peptide biotin-[…]-amide (Cyclin dependent kinase 1) per well.
A maximum and minimum signal for the assay was determined on each plate. The percent inhibition of a test compound was calculated according to the formula: […]
For a series of test concentrations, the IC50 was derived by graphing percent inhibition against the log of the concentrations tested for a given compound with results shown in Table 1.
For compounds with multiple values, each value represents a separate assay result.

The target in a further experiment is T5, Aurora-A (Mus musculus, UniProt P97477).
T5 construct: polyhistidine (N)
T5 sequence (P97477 1-395): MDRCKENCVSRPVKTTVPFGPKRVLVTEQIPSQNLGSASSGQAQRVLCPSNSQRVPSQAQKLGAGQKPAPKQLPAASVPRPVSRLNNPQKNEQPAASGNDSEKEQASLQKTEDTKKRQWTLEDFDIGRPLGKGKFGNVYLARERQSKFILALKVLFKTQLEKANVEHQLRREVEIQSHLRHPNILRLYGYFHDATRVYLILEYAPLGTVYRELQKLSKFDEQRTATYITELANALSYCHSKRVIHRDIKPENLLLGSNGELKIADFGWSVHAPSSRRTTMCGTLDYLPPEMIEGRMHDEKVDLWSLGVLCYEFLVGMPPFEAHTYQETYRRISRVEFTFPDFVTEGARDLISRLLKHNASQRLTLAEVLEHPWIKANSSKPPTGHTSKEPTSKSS
As to the kind of experiment: Aurora-A kinase screening assay (33P-ATP FlashPlate).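 Note: His-tagged mouse Aurora-A phosphorylating a biotinylated peptide captured on streptavidin plates, read as 33P uptake by scintillation counting, 1% DMSO, inhibition scaled between per-plate maximum and minimum signals.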 In kind it is biochemical. The following applies: 10 μM ATP, 1 hr at 30° C.

The test system of a further experiment is HCT-116 colon carcinoma. As to the kind of experiment: Cell Proliferation Inhibition Assay (14C-thymidine incorporation), HCT-116.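 Note: proliferation measured as methyl 14C-thymidine uptake into new DNA, counted in 96-well scintillating microplates, compared with DMSO-only control wells.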 In kind it is cell-based. The following applies: Homo sapiens. For orientation: Incorporation of labelled thymidine or its analogues reports DNA synthesis.
The test system of a further experiment is A375 malignant melanoma. As to the kind of experiment: Cell Proliferation Inhibition Assay (14C-thymidine incorporation), A375.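 Note: proliferation measured by radiolabelled thymidine uptake into new DNA, counted in scintillating 96-well plates, compound-treated wells compared with DMSO-only control wells.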 The class given is cell-based. The following applies: Homo sapiens, A-375, A375 cells.

T1 sequence (P04626 679-1255): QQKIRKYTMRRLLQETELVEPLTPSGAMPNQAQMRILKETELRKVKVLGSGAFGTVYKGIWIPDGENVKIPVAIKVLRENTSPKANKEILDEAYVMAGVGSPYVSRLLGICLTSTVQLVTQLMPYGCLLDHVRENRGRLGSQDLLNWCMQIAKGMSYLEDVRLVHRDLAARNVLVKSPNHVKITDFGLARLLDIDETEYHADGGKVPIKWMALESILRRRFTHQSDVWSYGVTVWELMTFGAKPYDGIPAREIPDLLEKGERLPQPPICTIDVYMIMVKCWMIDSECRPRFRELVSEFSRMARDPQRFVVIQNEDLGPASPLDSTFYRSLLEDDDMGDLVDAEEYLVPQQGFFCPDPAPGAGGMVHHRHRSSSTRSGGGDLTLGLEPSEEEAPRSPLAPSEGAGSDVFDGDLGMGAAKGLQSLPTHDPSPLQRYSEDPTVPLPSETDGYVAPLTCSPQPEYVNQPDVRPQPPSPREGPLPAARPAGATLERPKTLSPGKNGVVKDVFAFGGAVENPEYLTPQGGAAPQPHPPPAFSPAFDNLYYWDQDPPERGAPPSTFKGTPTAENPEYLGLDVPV
T4 sequence (P06493 whole entry): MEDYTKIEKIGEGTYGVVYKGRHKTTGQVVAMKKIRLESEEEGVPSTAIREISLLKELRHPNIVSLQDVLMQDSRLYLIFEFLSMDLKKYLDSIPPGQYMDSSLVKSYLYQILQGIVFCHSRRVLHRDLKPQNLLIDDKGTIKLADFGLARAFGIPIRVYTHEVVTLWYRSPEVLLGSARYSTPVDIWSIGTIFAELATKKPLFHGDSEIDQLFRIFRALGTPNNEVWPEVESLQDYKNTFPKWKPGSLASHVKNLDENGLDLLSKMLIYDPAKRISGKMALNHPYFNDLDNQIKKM
T4 sequence (P14635 whole entry partner): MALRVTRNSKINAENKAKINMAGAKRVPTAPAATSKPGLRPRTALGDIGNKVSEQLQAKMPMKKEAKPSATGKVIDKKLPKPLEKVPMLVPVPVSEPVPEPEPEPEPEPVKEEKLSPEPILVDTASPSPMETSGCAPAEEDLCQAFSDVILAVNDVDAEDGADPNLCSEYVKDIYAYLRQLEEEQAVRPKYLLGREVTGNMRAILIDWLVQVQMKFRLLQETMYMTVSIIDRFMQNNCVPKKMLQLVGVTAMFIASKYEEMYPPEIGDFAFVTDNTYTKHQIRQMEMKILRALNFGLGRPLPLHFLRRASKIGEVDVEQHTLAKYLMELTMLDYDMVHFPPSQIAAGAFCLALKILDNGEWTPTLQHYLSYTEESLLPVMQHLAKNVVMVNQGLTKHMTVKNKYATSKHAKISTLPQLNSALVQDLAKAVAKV
T3 sequence (O08775 786-1343): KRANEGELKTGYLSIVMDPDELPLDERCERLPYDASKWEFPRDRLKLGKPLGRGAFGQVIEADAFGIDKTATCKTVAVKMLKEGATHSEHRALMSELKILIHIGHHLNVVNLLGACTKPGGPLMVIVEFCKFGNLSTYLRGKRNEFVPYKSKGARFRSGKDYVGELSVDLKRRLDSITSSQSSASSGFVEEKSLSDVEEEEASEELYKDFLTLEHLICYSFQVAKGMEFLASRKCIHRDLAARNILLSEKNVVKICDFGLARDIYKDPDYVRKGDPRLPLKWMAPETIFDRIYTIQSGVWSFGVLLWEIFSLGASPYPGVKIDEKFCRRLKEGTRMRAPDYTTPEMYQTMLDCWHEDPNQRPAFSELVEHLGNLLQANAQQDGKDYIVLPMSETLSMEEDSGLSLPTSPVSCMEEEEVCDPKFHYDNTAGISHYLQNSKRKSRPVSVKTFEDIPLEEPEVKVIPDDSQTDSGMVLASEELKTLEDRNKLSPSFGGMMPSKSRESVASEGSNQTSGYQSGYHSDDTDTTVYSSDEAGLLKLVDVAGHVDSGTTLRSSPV

As for `OCc1cccc2[nH]c(-c3n[nH]c4ncc(-c5cncc6ccccc56)cc34)nc12` [Cpd 3, [2-(5-isoquinolin-4-yl-1H-pyrazolo[3,4-b]pyridin-3-yl)-1H-benzoimidazol-4-yl]-methanol], the IC50 is 1760 nM in experiment [1] (HeLa); 245 nM at HER2; over 100000 nM at RET; over 100000 nM at VEGF-R2; 41.2 nM on CDK1; over 10000 nM against Aurora-A. Further, in the experiment with HCT-116 colon carcinoma (HCT-116, HCT-116 cells), it took 892 nM to reach half-maximal inhibition (IC50).
Take `c1ccc2c(-c3cnc4[nH]nc(-c5nc6c(CN7CCCC7)cccc6[nH]5)c4c3)cncc2c1` [Cpd 7, 4-[3-(4-pyrrolidin-1-ylmethyl-1H-benzoimidazol-2-yl)-1H-pyrazolo[3,4-b]pyridin-5-yl]-isoquinoline]: the IC50 in experiment [1] (HeLa) was 113 nM; against RET it was over 10000 nM; at VEGF-R2 it was 1570 nM; on CDK1, 4.92 nM; against Aurora-A, 1720 nM; with A375 malignant melanoma, 82.5 nM. It took 64.8 nM to reach half-maximal inhibition with HCT-116 colon carcinoma (HCT-116, HCT-116 cells) (IC50).
With `c1ccc2c(-c3cnc4[nH]nc(-c5nc6c(CN7CCCCC7)cccc6[nH]5)c4c3)cncc2c1` [Cpd 8, 4-[3-(4-piperidin-1-ylmethyl-1H-benzoimidazol-2-yl)-1H-pyrazolo[3,4-b]pyridin-5-yl]-isoquinoline], the IC50 was 48.6 nM in experiment [1] (HeLa); over 10000 nM on RET; 403 nM at VEGF-R2; 8.11 nM on CDK1; 1370 nM against Aurora-A; 29.2 nM in the experiment with A375 malignant melanoma. In the experiment on HCT-116 colon carcinoma (HCT-116, HCT-116 cells), the IC50 was 28.5 nM.
For the compound `c1ccc2c(-c3cnc4[nH]nc(-c5nc6c(CN7CCOCC7)cccc6[nH]5)c4c3)cncc2c1` [Cpd 9, 4-[3-(4-morpholin-4-ylmethyl-1H-benzoimidazol-2-yl)-1H-pyrazolo[3,4-b]pyridin-5-yl]-isoquinoline], the IC50 is 92.6 nM in experiment [1] (HeLa); about 10000 nM on RET; 210 nM at VEGF-R2; 8.45 nM on CDK1; about 10000 nM on Aurora-A; 84 nM in the experiment with A375 malignant melanoma. Also, in the experiment with HCT-116 colon carcinoma (HCT-116, HCT-116 cells), 64.7 nM corresponded to half-maximal inhibition (IC50).
Turning to `CCN1CCN(Cc2cccc3[nH]c(-c4n[nH]c5ncc(-c6cncc7ccccc67)cc45)nc23)CC1` [Cpd 10, 4-{3-[4-(4-ethyl-piperazin-1-ylmethyl)-1H-benzoimidazol-2-yl]-1H-pyrazolo[3,4-b]pyridin-5-yl}-isoquinoline], the IC50 in experiment [1] (HeLa) was 127 nM; against RET, over 10000 nM; at VEGF-R2, 163 nM; against CDK1, 15.9 nM; against Aurora-A, 6740 nM; with A375 malignant melanoma, 118 nM. The compound further yielded a half-inhibitory concentration (IC50) in the experiment with HCT-116 colon carcinoma (HCT-116, HCT-116 cells) of 191 nM.
Consider `c1ccc2c(-c3cnc4[nH]nc(-c5nc6c(Cn7ccnc7)cccc6[nH]5)c4c3)cncc2c1` [Cpd 12, 4-[3-(4-imidazol-1-ylmethyl-1H-benzoimidazol-2-yl)-1H-pyrazolo[3,4-b]pyridin-5-yl]-isoquinoline], for which the IC50 in experiment [1] (HeLa) is 3200 nM; against RET, about 100000 nM; on VEGF-R2, about 10000 nM; on CDK1, 41.5 nM; on Aurora-A it was about 10000 nM; in the experiment on A375 malignant melanoma it was 4090 nM. The concentration for half-maximal inhibition (IC50) in the experiment with HCT-116 colon carcinoma (HCT-116, HCT-116 cells) is 1890 nM.
Take `COCc1cccc2[nH]c(-c3n[nH]c4ncc(-c5cnc6ccccc6c5)cc34)nc12` [Cpd 34, 3-[3-(4-methoxymethyl-1H-benzoimidazol-2-yl)-1H-pyrazolo[3,4-b]pyridin-5-yl]-quinoline]: the IC50 in experiment [1] (HeLa) is 1460 nM; at RET, about 10000 nM; against VEGF-R2 it was 157 nM; against CDK1, 1360 nM; at Aurora-A it was over 10000 nM; in the experiment with A375 malignant melanoma, 10.7 nM.
Regarding `CN1CCN(c2ccc3[nH]c(-c4n[nH]c5ncc(-c6cccnc6)cc45)nc3c2)CC1` [Cpd 89, 3-[5-(4-methyl-piperazin-1-yl)-1H-benzoimidazol-2-yl]-5-pyridin-3-yl-1H-pyrazolo[3,4-b]pyridine], the IC50 in experiment [1] (HeLa) was 617 nM; at HER2, 31800 nM; against RET, 193 nM; against VEGF-R2, 47.5 nM; against Aurora-A it was 225 nM; with A375 malignant melanoma, 544 nM. Moreover, in the experiment on HCT-116 colon carcinoma (HCT-116, HCT-116 cells), the concentration for half-maximal inhibition (IC50) worked out at 423 nM.
Turning to `CNCc1cncc(-c2cnc3[nH]nc(-c4nc5cc6c(cc5[nH]4)OC(F)(F)O6)c3c2)c1` [Cpd 100, {5-[3-(2,2-difluoro-5H-[1,3]dioxolo[4′,5′:4,5]benzo[1,2-d]imidazol-6-yl)-1H-pyrazolo[3,4-b]pyridin-5-yl]-pyridin-3-ylmethyl}-methyl-amine], the IC50 was 55.1 nM in experiment [1] (HeLa); 7060 nM against HER2; about 100 nM against VEGF-R2; 1.6 nM at CDK1; about 10000 nM against Aurora-A; 52.5 nM with A375 malignant melanoma. In addition, the half-inhibitory concentration (IC50) in the experiment with HCT-116 colon carcinoma (HCT-116, HCT-116 cells) was 237 nM.
With `CCCNCc1cncc(-c2cnc3[nH]nc(-c4nc5cc(OC)ccc5[nH]4)c3c2)c1` [Cpd 103, {5-[3-(5-methoxy-1H-benzoimidazol-2-yl)-1H-pyrazolo[3,4-b]pyridin-5-yl]-pyridin-3-ylmethyl}-propyl-amine], the IC50 in experiment [1] came to 62.3 nM; against HER2 it was 2160 nM; on VEGF-R2, 47.6 nM; on CDK1, 0.4 nM; on Aurora-A, 270 nM; with A375 malignant melanoma it was 39.2 nM. Also, the IC50 in the experiment with HCT-116 colon carcinoma (HCT-116 cells) was found to be 33.5 nM.
As to `CCCCNCc1cncc(-c2cnc3[nH]nc(-c4nc5cc(OC)ccc5[nH]4)c3c2)c1` [Cpd 104, butyl-{5-[3-(5-methoxy-1H-benzoimidazol-2-yl)-1H-pyrazolo[3,4-b]pyridin-5-yl]-pyridin-3-ylmethyl}-amine], the IC50 in experiment [1] was 85 nM; against HER2, 1880 nM; on VEGF-R2, 17.9 nM; against CDK1, 0.8 nM; against Aurora-A, 245 nM; in the experiment on A375 malignant melanoma, 39.5 nM. In the experiment with HCT-116 colon carcinoma (HCT-116 cells), this compound displayed an IC50 of 52 nM.
Take `COC(=O)c1cccc2[nH]c(-c3n[nH]c4ncc(-c5cncc6ccccc56)cc34)nc12` [Cpd 108, 2-(5-isoquinolin-4-yl-1H-pyrazolo[3,4-b]pyridin-3-yl)-1H-benzoimidazole-4-carboxylic acid methyl ester]: the IC50 in experiment [1] (HeLa) is 10500 nM; at HER2 it was over 100000 nM; against RET it was over 100000 nM; against VEGF-R2, about 100000 nM; against CDK1, about 10000 nM; against Aurora-A it was about 100000 nM. Besides, in the experiment on A375 malignant melanoma, the IC50 was 7380 nM.
